Experimental data as given in US20080026996A1, “Selective Vpac2 Receptor Reptide Agonists” (ELI LILLY AND COMPANY, priority 2004, published 2008).
Where a SMILES comes first, the peptide text is derived from it. Where no end group is shown, it is not given here. [ ]: non-standard residue; d: D form. The star is where a group is joined. Hexanoyl = CCCCCC(=O)*; Aib = CC(C)(N)C(=O)O

Experiments:
[1] = molecular target: T1, human VPAC2 (Homo sapiens, UniProt P41587); test: Filter binding assay, membranes of stable VPAC2 cell line, 125I-labeled VIP tracer (Table 2); settings: read-out: Human VPAC2 Receptor Binding
T1 construct: expressed in transfected cells
T1 sequence (P41587 24-438): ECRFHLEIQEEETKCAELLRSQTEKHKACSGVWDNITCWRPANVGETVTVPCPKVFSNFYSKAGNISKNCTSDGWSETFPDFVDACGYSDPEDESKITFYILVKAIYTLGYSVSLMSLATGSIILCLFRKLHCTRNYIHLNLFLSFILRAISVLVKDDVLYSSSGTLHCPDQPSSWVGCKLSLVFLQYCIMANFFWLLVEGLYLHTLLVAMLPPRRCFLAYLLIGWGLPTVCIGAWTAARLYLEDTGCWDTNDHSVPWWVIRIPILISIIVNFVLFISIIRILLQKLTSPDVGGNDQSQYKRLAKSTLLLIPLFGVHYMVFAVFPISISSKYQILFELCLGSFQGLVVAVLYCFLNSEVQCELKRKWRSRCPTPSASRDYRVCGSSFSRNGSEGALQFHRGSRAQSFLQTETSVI
Protocol: (§1) For this assay, the solutions and equipment include:
(§2) Presoak solution: 0.5% Polyethyleneamine in Aqua dest.
(§3) Buffer for flushing filter plates: 25 mM HEPES pH 7.4
(§4) Blocking buffer: 25 mM HEPES pH 7.4; 0.2% protease free BSA
(§5) Assay buffer: 25 mM HEPES pH 7.4; 0.5% protease free BSA
(§6) Dilution and assay plate: PS-Microplate, U form
(§7) Filtration Plate Multiscreen FB Opaque Plate; […] Type B Glasfiber filter
(§8) In order to prepare the filter plates, aspirate the presoak solution by vacuum filtration. Flush the plates twice with 200 μL flush buffer. Add 200 μL blocking buffer to the filter plate. The filter plate is then incubated […] for 1 hour at room temperature.
(§9) Fill the assay plate with 25 μL assay buffer, 25 μL membranes (2.5 μg) suspended in assay buffer, 25 μL compound (agonist) in assay buffer, and 25 μL tracer (about 40000 cpm) in assay buffer. Incubate the filled plate for 1 hour with shaking.
(§10) Conduct the transfer from assay plate to filter plate. Aspirate the blocking buffer by vacuum filtration and wash two times with flush buffer. Transfer 90 μL from the assay plate to the filter plate. Aspirate the 90 μL transferred from assay plate and wash three times with 200 μL flush buffer. Remove the plastic support. Dry for 1 hour at 60° C. Add 30 μL Microscint. Perform the count.

[2] = molecular target: T2, human PAC1 (Homo sapiens, UniProt P41586); test: Filter binding assay, membranes of cells transiently transfected with human PAC1, 125I-labeled PACAP-27 tracer (Table 2); design: expressed in transfected cells; settings: read-out: Human PAC1 Receptor Binding
T2 sequence (P41586 21-468): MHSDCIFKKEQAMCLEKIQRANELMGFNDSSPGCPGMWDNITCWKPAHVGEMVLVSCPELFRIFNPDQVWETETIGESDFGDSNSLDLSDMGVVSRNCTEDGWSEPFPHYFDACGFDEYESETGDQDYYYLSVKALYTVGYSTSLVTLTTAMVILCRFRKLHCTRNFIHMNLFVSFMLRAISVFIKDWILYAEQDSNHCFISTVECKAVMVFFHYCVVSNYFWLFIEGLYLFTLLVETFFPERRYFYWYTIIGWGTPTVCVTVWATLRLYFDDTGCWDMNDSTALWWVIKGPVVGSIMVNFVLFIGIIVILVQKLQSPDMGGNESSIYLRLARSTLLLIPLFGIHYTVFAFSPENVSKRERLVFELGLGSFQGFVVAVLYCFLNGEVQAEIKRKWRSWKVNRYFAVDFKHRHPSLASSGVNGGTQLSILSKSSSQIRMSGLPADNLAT
Protocol: as §1, §2, §3, §4, §5, §6, §7, §8, §9, §10

[3] = molecular target: T3, human VPAC1 (Homo sapiens, UniProt P32241); test: Filter binding assay, membranes of cells transiently transfected with human VPAC1, 125I-labeled VIP tracer (Table 2); design: expressed in transfected cells; settings: read-out: Human VPAC1 Receptor Binding
T3 sequence (P32241 31-457): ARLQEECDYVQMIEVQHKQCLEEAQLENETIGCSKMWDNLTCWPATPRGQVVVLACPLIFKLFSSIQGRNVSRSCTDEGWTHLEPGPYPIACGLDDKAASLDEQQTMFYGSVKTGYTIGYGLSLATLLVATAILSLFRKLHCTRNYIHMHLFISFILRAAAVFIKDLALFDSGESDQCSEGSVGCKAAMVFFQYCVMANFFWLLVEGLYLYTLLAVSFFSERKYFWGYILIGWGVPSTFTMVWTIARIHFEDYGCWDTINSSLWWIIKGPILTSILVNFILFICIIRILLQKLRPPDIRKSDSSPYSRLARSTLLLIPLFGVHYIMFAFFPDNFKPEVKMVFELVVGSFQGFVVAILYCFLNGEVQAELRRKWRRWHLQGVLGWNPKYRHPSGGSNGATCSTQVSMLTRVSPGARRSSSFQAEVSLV
Protocol: as §1, §2, §3, §4, §5, §6, §7, §8, §9, §10

[4] = molecular target: T1, human VPAC2; test: Alpha screen cAMP in vitro potency, human VPAC2 receptor; type: cell-based; settings: cAMP generation; single result from two analyses performed in a single run; read-out: Human VPAC2 Receptor: Alpha Screen EC50
Protocol: Alpha screen: Cells are washed in the culture flask once with PBS. Then, the cells are rinsed with enzyme free dissociation buffer. The dissociated cells are removed. The cells are then spun down and washed in stimulation buffer. For each data point, 50,000 cells suspended in stimulation buffer are used. To this buffer, Alpha screen acceptor beads are added along with the stimuli. This mixture is incubated for 60 minutes. Lysis buffer and Alpha screen donor beads are added and are incubated for 60 to 120 minutes. The Alpha screen signal (indicative of intracellular cAMP levels) is read in a suitable instrument (e.g. AlphaQuest from Perkin-Elmer). Steps including Alpha screen donor and acceptor beads are performed in reduced light.

Row | Compound | IC50 [1] | IC50 [2] | IC50 [3] | EC50 [4]
1 | CCCCCC(=O)N[C@@H](Cc1c[nH]cn1)C(=O)N[C@@H](CO)C(=O)N[C@@H](CC(=O)O)C(=O)N[C@@H](C)C(=O)N[C@H](C(=O)N[C@@H](Cc1ccccc1)C(=O)N[C@H](C(=O)N[C@@H](CC(=O)O)C(=O)N[C@@H](CC(N)=O)C(=O)N[C@@H](Cc1ccc(O)cc1)C(=O)N[C@H](C(=O)N[C@@H](CCCNC(=N)N)C(=O)N[C@@H](CC(C)C)C(=O)N[C@@H](CCCNC(=N)N)C(=O)N[C@@H](CCCCN)C(=O)N[C@@H](CCC(N)=O)C(=O)N[C@H](C(=O)N[C@@H](C)C(=O)N[C@@H](C)C(=O)N[C@@H](CCCCN)C(=O)N[C@@H](CCCCN)C(=O)N[C@@H](Cc1ccc(O)cc1)C(=O)N[C@@H](CC(C)C)C(=O)N[C@@H](CCC(N)=O)C(=O)N[C@@H](CO)C(=O)N[C@H](C(=O)N[C@@H](CCCCN)C(=O)N[C@@H](CC(N)=O)C(=O)NCC(=O)NCC(=O)N1CCC[C@H]1C(=O)N[C@@H](CO)C(=O)N[C@@H](CO)C(=O)NCC(=O)N[C@@H](C)C(=O)N1CCC[C@H]1C(=O)N1CCC[C@H]1C(=O)N1CCC[C@H]1C(=O)N[C@@H](CO)C(=O)O)[C@@H](C)CC)C(C)C)[C@@H](C)O)[C@@H](C)O)C(C)C [Agonist P154] (Hexanoyl-HSDAVFTDNYTRLRKQVAAKKYLQSIKNGGPSSGAPPPS-OH; C-terminus assumed) | 0.31 nM | 1960 nM | 141 nM | 0.18 nM
2 | Hexanoyl-HSDAVFTDNYTRLRKQVAAKKYLQYIKNKRYGGPSSGAPPPS [Agonist P127] | 0.23 nM | 209 nM | 290 nM | 0.22 nM
3 | Hexanoyl-HSDAVFTDNYTRLRKQVAAKKYLQ[Aib]IKNKRYGGPSSGAPPPS [Agonist P187] | 0.17 nM | 296 nM | 134 nM | 0.4 nM
4 | Hexanoyl-HSDAVFTDNYTRLLAQLALQKYLQSIKNKRYGGPSSGAPPPS [Agonist P195] | 2.34 nM | 139 nM | > 3000 nM | 0.25 nM
5 | Hexanoyl-HSDAVFTDNYTRLRKQVAAKKYLQIIKNKRYGGPSSGAPPPS [Agonist P113] | 0.69 nM | 189 nM | 293 nM | 0.26 nM
6 | Hexanoyl-HSDAVFTDNYTRLRKQVAAKKYLQTIKNKRYGGPSSGAPPPS [Agonist P115] | 0.1 nM | 190 nM | 267 nM | 0.2 nM
7 | Hexanoyl-HSDAVFTDNYTRLRKQVAAKKYLQSTKNKRYGGPSSGAPPPS [Agonist P108] | 0.45 nM | 486 nM | 332 nM | 0.27 nM
8 | Hexanoyl-H[Aib]DAVFTDNYTRLRKQVAAKKYLQSIKNKRYGGPSSGAPPPS [Agonist P166] | 0.46 nM | 127 nM | 248 nM | 0.15 nM
9 | CCCCCC(=O)N[C@@H](Cc1c[nH]cn1)C(=O)N[C@@H](CO)C(=O)N[C@@H](CC(=O)O)C(=O)N[C@@H](C)C(=O)N[C@H](C(=O)N[C@@H](Cc1ccccc1)C(=O)N[C@H](C(=O)N[C@@H](CC(=O)O)C(=O)N[C@@H](CC(N)=O)C(=O)N[C@@H](Cc1ccc(O)cc1)C(=O)N[C@H](C(=O)N[C@@H](CCCNC(=N)N)C(=O)N[C@@H](CC(C)C)C(=O)N[C@@H](CCCNC(=N)N)C(=O)N[C@@H](CCCCN)C(=O)N[C@@H](CCC(N)=O)C(=O)N[C@H](C(=O)N[C@@H](C)C(=O)N[C@@H](C)C(=O)N[C@@H](CCC(N)=O)C(=O)N[C@@H](CCCCN)C(=O)N[C@@H](Cc1ccc(O)cc1)C(=O)N[C@@H](CC(C)C)C(=O)N[C@@H](CC(N)=O)C(=O)N[C@@H](CCC(N)=O)C(=O)N[C@@H](CC(C)C)C(=O)N[C@@H](CCCCN)C(=O)N[C@@H](CCCCN)C(=O)NCC(=O)NCC(=O)N1CCC[C@H]1C(=O)N[C@@H](CO)C(=O)N[C@@H](CO)C(=O)NCC(=O)N[C@@H](C)C(=O)N1CCC[C@H]1C(=O)N1CCC[C@H]1C(=O)N1CCC[C@H]1C(=O)N[C@@H](CO)C(=O)O)C(C)C)[C@@H](C)O)[C@@H](C)O)C(C)C [Agonist P144] (Hexanoyl-HSDAVFTDNYTRLRKQVAAQKYLNQLKKGGPSSGAPPPS-OH; C-terminus assumed) | 0.57 nM | 1180 nM | 4.43 nM | 0.32 nM
10 | Hexanoyl-HSDAVFTDNYTRLRKQVAAKKYLQSIKNSRGGPSSGAPPPS [Agonist P122] | 0.17 nM | 304 nM | 77.6 nM | 0.14 nM
11 | Hexanoyl-HSDAVFTDNYTKLKKQVAAKKYLQSIKNKKYGGPSSGAPPPS [Agonist P103] | 0.08 nM | 333 nM | 228 nM | 0.12 nM
12 | Hexanoyl-HSDAVFTDQYTRLLAKLALQKYLQSIKQKRYGGPSSGAPPPS [Agonist P192] | 0.53 nM | 14300 nM | 1430 nM | 0.18 nM
13 | Hexanoyl-HSDAVFTDNYTRLKAQVAAKKYLQSIKNKRYGGPSSGAPPPS [Agonist P141] | 0.64 nM | 658 nM | 25.9 nM | 0.72 nM
14 | Hexanoyl-HSDAVFTDNYTRLLAKVALQKYLQSIKNKRYGGPSSGAPPPS [Agonist P196] | 0.85 nM | > 25000 nM | 453 nM | 0.23 nM
15 | CCCCCC(=O)N[C@@H](Cc1c[nH]cn1)C(=O)N[C@@H](CO)C(=O)N[C@@H](CC(=O)O)C(=O)N[C@@H](C)C(=O)N[C@H](C(=O)N[C@@H](Cc1ccccc1)C(=O)N[C@H](C(=O)N[C@@H](CC(=O)O)C(=O)N[C@@H](CC(N)=O)C(=O)N[C@@H](Cc1ccc(O)cc1)C(=O)N[C@H](C(=O)N[C@@H](CCCNC(=N)N)C(=O)N[C@@H](CC(C)C)C(=O)N[C@@H](CCCNC(=N)N)C(=O)N[C@@H](CCCCN)C(=O)N[C@@H](CCC(N)=O)C(=O)N[C@@H](CCSC)C(=O)N[C@@H](C)C(=O)N[C@@H](C)C(=O)N[C@@H](CCC(N)=O)C(=O)N[C@@H](CCCCN)C(=O)N[C@@H](Cc1ccc(O)cc1)C(=O)N[C@@H](CC(C)C)C(=O)N[C@@H](CC(N)=O)C(=O)N[C@@H](CCC(N)=O)C(=O)N[C@@H](CC(C)C)C(=O)N[C@@H](CCCCN)C(=O)N[C@@H](CCCCN)C(=O)NCC(=O)NCC(=O)N1CCC[C@H]1C(=O)N[C@@H](CO)C(=O)N[C@@H](CO)C(=O)NCC(=O)N[C@@H](C)C(=O)N1CCC[C@H]1C(=O)N1CCC[C@H]1C(=O)N1CCC[C@H]1C(=O)N[C@@H](CO)C(=O)O)[C@@H](C)O)[C@@H](C)O)C(C)C [Agonist P143] (Hexanoyl-HSDAVFTDNYTRLRKQMAAQKYLNQLKKGGPSSGAPPPS-OH; C-terminus assumed) | 0.5 nM | 1080 nM | 605 nM | 0.1 nM
16 | Hexanoyl-HSDAVFTDNYTRLRRQVAARRYLQSIRNRRYGGPSSGAPPPS [Agonist P98] | 0.17 nM | 96.3 nM | 69 nM | 0.15 nM
